The results in this text go back to patent US20160002204A1 (Board of Regents, The University of Texas System, priority 2014, published 2016).

Assay [1] concerns the target T1, GLS1 (purified recombinant human GAC) (Homo sapiens, UniProt O94925).
T1 sequence (O94925 55-598 isoform O94925-3 limits assumed): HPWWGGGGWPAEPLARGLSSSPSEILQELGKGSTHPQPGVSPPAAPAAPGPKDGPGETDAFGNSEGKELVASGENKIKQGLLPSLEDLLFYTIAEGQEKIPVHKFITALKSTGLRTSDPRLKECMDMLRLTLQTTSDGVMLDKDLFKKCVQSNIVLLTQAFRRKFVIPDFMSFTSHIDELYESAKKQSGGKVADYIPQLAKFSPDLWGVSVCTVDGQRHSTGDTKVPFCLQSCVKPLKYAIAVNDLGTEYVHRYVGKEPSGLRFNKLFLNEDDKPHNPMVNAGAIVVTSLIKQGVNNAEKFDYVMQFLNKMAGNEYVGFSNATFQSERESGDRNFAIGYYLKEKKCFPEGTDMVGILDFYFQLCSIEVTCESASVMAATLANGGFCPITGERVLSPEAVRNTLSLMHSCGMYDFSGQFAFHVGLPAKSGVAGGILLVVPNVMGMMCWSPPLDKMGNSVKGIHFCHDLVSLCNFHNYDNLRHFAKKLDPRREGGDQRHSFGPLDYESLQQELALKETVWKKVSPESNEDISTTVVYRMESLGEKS
Description: GLS1 enzymatic activity assay (dual-coupled, Amplex UltraRed/resorufin). The class given is biochemical. Summed up: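 In this coupled fluorometric format, phosphate-activated GAC (2 nM, 50 mM phosphate) is pre-exposed to compound for 10 min before 1 mM glutamine addition. Product is tracked as resorufin (530/590 nm) over time or at 20 min, and potency is derived by logistic fitting.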

The subject of a further assay is A549 cells. Put plainly: A549 proliferation (viability) assay, Cell Titer Fluor, 72 hours. The assay is classed as cell-based. To be noted: Homo sapiens. Summed up: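 Compound exposure lasted 72 h (final DMSO 0.5% v/v) on A549 cells plated at 1000 cells/well one day earlier. Cell Titer Fluor added, 30 min at 37 °C, fluorescence read; EC50 derived by four-parameter logistic curve fitting.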

For the compound `O=C(NCc1cc(C(F)(F)F)ccn1)c1cn(CC(F)CCn2ccc(COc3cccc(Cl)c3)cc2=O)nn1` (stereo not shown) [Example 481, 1-{4-[4-(3-chlorophenoxymethyl)-2-oxo-1,2-dihydropyridin-1-yl]-2-fluorobutyl}-N-{[4-(trifluoromethyl)pyridin-2-yl]methyl}-1H-1,2,3-triazole-4-carboxamide], the IC50 (usually the point on the concentration scale where inhibition reaches its midpoint) in assay [1] was under 100 nM. For the same compound, the EC50 (as a rule, the midpoint of the concentration-response curve) with A549 cells is 100 to 500 nM.
The corresponding values for `O=C(NCc1cccc(OC(F)(F)F)c1)c1cn(CC(F)CCn2ccc(COc3ccc(Cl)cc3)cc2=O)nn1` (stereo not shown) [Example 477, 1-{4-[4-(4-chlorophenoxymethyl)-2-oxo-1,2-dihydropyridin-1-yl]-2-fluorobutyl}-N-{[3-(trifluoromethoxy)phenyl]methyl}-1H-1,2,3-triazole-4-carboxamide] are under 100 nM and 100 to 500 nM.
As to `O=C(CC1CCCCC1)Nc1ccn(CCCCn2cc(C(=O)NCc3ncccc3F)nn2)c(=O)c1` [Example 146, 1-{4-[4-(2-cyclohexylacetamido)-2-oxo-1,2-dihydropyridin-1-yl]butyl}-N-[(3-fluoropyridin-2-yl)methyl]-1H-1,2,3-triazole-4-carboxamide], the concentration for half-maximal inhibition (IC50) in assay [1] is under 100 nM. In addition, the EC50 in the assay with A549 cells is 100 to 500 nM.
With `O=C(Cc1ccccc1)Nc1ccn(CCCCc2ccc(NC(=O)Cc3cccc(OC(F)(F)F)c3)nn2)c(=O)c1` [Example 14, N-(2-oxo-1-(4-(6-(2-(3-(trifluoromethoxy)phenyl)acetamido)pyridazin-3-yl)butyl)-1,2-dihydropyridin-4-yl)-2-phenylacetamide], the IC50 in assay [1] is under 100 nM. Further, the EC50 in the assay on A549 cells was under 100 nM.
As to `O=C(CC1CCCCO1)Nc1ccn(CCCCn2cc(C(=O)NCc3cccc(OC(F)(F)F)c3)nn2)c(=O)c1` (stereo not shown) [Example 206, 1-(4-{4-[2-(oxan-2-yl)acetamido]-2-oxo-1,2-dihydropyridin-1-yl}butyl)-N-{[3-(trifluoromethoxy)phenyl]methyl}-1H-1,2,3-triazole-4-carboxamide], the IC50 in assay [1] was under 100 nM. In the assay on A549 cells, this compound had an EC50 of under 100 nM.
With `O=C(Nc1ccn(CCC(F)Cn2cc(C(=O)NCc3cc(C(F)(F)F)ccn3)nn2)c(=O)n1)OCc1cccc(OC(F)(F)F)c1` (stereo not shown) [Example 500, [3-(trifluoromethoxy)phenyl]methyl N-(1-{3-fluoro-4-[4-({[4-(trifluoromethyl)pyridin-2-yl]methyl}carbamoyl)-1H-1,2,3-triazol-1-yl]butyl}-2-oxo-1,2-dihydropyrimidin-4-yl)carbamate], the IC50 in assay [1] is under 100 nM. In the assay with A549 cells, the EC50 was under 100 nM.
With `CCOC(=O)N1CCN(CC(=O)Nc2ccn(CCC(F)Cn3cc(C(=O)NCc4cccc(OC(F)(F)F)c4)nn3)c(=O)c2)CC1` (stereo not shown) [Example 255, ethyl 4-{[(1-{3-fluoro-4-[4-({[3-(trifluoromethoxy)phenyl]methyl}carbamoyl)-1H-1,2,3-triazol-1-yl]butyl}-2-oxo-1,2-dihydropyridin-4-yl)carbamoyl]methyl}piperazine-1-carboxylate], in assay [1], the IC50 is under 100 nM. Further, the EC50 with A549 cells is under 100 nM.
Regarding `CC(C)(C)OC(=O)Nc1ccn(CCC(F)Cn2cc(C(=O)NCc3cc(Cl)ccc3F)nn2)c(=O)c1` (stereo not shown) [Example 233, tert-butyl N-{1-[4-(4-{[(5-chloro-2-fluorophenyl)methyl]carbamoyl}-1H-1,2,3-triazol-1-yl)-3-fluorobutyl]-2-oxo-1,2-dihydropyridin-4-yl}carbamate], the IC50 in assay [1] was under 100 nM. Further, the EC50 in the assay with A549 cells lay within 500 to 5000 nM.
Consider `O=C(Cc1ccccc1)Nc1ccn(CCCCc2nnc(C(=O)NCc3ncccc3F)s2)c(=O)c1` [Example 453, N-[(3-fluoropyridin-2-yl)methyl]-5-{4-[2-oxo-4-(2-phenylacetamido)-1,2-dihydropyridin-1-yl]butyl}-1,3,4-thiadiazole-2-carboxamide], for which the IC50 in assay [1] lay within 100 to 500 nM. The compound further yielded an EC50 in the assay with A549 cells of 500 to 5000 nM.
For the compound `O=C(Cc1cccc(OC(F)(F)F)c1)Nc1ccn(CCCCc2nnc(C(=O)NCc3ncccc3F)s2)c(=O)c1` [Example 454, N-[(3-fluoropyridin-2-yl)methyl]-5-[4-(2-oxo-4-{2-[3-(trifluoromethoxy)phenyl]acetamido}-1,2-dihydropyridin-1-yl)butyl]-1,3,4-thiadiazole-2-carboxamide], in assay [1], the IC50 is under 100 nM. For the same compound, the EC50 in the assay with A549 cells was in the range of 100 to 500 nM.
`O=C(CC1CCSCC1)Nc1ccn(CCCCn2cc(C(=O)NCc3cccc(OC(F)(F)F)c3)nn2)c(=O)c1` [Example 169, 1-(4-{2-oxo-4-[2-(thian-4-yl)acetamido]-1,2-dihydropyridin-1-yl}butyl)-N-{[3-(trifluoromethoxy)phenyl]methyl}-1H-1,2,3-triazole-4-carboxamide]: the IC50 in assay [1] is under 100 nM. This compound yielded an EC50 in the assay with A549 cells of 100 to 500 nM.
With `O=C(Nc1ccn(CCC(F)Cn2cc(C(=O)NCc3cc(C(F)(F)F)ccn3)nn2)c(=O)n1)OCc1ccccc1F` (stereo not shown) [Example 501, (2-fluorophenyl)methyl N-(1-{3-fluoro-4-[4-({[4-(trifluoromethyl)pyridin-2-yl]methyl}carbamoyl)-1H-1,2,3-triazol-1-yl]butyl}-2-oxo-1,2-dihydropyrimidin-4-yl)carbamate], the IC50 in assay [1] was under 100 nM. Also, in the assay on A549 cells, the EC50 is 100 to 500 nM.
With `O=C(Cc1ccccc1)Nc1ccn(CCC(F)Cn2cc(C(=O)NCc3ccc(C(F)(F)F)nc3)nn2)c(=O)c1F` (stereo not shown) [Example 367, 1-{2-fluoro-4-[3-fluoro-2-oxo-4-(2-phenylacetamido)-1,2-dihydropyridin-1-yl]butyl}-N-{[6-(trifluoromethyl)pyridin-3-yl]methyl}-1H-1,2,3-triazole-4-carboxamide], the IC50 in assay [1] was under 100 nM. In the assay with A549 cells, this compound showed an EC50 of 100 to 500 nM.
`CS(=O)(=O)N1CCN(CC(=O)Nc2ccn(CCC(F)Cn3cc(C(=O)NCc4cccc(OC(F)(F)F)c4)nn3)c(=O)c2)CC1` (stereo not shown) [Example 279, 1-(2-fluoro-4-{4-[2-(4-methanesulfonylpiperazin-1-yl)acetamido]-2-oxo-1,2-dihydropyridin-1-yl}butyl)-N-{[3-(trifluoromethoxy)phenyl]methyl}-1H-1,2,3-triazole-4-carboxamide]: in assay [1], the IC50 is under 100 nM. For the same compound, in the assay on A549 cells, the EC50 was over 5000 nM.
The like results for `O=C(CC1CCC1)Nc1ccn(CCCCn2cc(C(=O)NCc3cccc(OC(F)(F)F)c3)nn2)c(=O)c1` [Example 201, 1-{4-[4-(2-cyclobutylacetamido)-2-oxo-1,2-dihydropyridin-1-yl]butyl}-N-{[3-(trifluoromethoxy)phenyl]methyl}-1H-1,2,3-triazole-4-carboxamide] were, in that order, under 100 nM and 100 to 500 nM.
Turning to `O=C(CC1CCCCC1)Nc1ccn(CCC(F)Cn2cc(C(=O)NCc3ccc(C(F)(F)F)cn3)nn2)c(=O)c1F` (stereo not shown) [Example 261, 1-{4-[4-(2-cyclohexylacetamido)-3-fluoro-2-oxo-1,2-dihydropyridin-1-yl]-2-fluorobutyl}-N-{[5-(trifluoromethyl)pyridin-2-yl]methyl}-1H-1,2,3-triazole-4-carboxamide], the IC50 in assay [1] was under 100 nM. The concentration for a half-maximal effect (EC50) in the assay on A549 cells was under 100 nM.
Take `Nc1ccn(CCC(F)Cn2cc(C(=O)NCc3cccc(OC(F)(F)F)c3)nn2)c(=O)n1` (stereo not shown) [Example 382, 1-[4-(4-amino-2-oxo-1,2-dihydropyrimidin-1-yl)-2-fluorobutyl]-N-{[3-(trifluoromethoxy)phenyl]methyl}-1H-1,2,3-triazole-4-carboxamide]: the IC50 in assay [1] is 500 to 5000 nM. The compound further displayed an EC50 in the assay with A549 cells of over 5000 nM.
